This note sets out measurements from US20110105623A1 (Biogenic Innovations, LLC, priority 2009, published 2011).

Series [1] deals with Streptococcus Pyogenes (Lancefield group A, #10096). In words: Bacterial viability by bioluminescent ATP assay.
For series [2], the system named is Streptococcus Pneumonia (#10341). The series can be described thus: Bacterial viability by bioluminescent ATP assay.

As to `C[S+](C)[O-]` [DMSO, Dimethyl sulfoxide], the IC50 in series [1] turned out to be 9.07%; in series [2] it was 12.86%. The “Viability of S. pyogenes” value in series [1] (DMSO Concentration 0.31), in series [1] (DMSO Concentration 0.63), in series [1] (DMSO Concentration 1.25) and in series [1] (DMSO Concentration 2.50) was 100% each time. This molecule displayed a S. pyogenes viability in series [1] (DMSO […], MSM 0%) of 100%. In series [2] (5% DMSO), the “reduces viability by” value is given as “approximately 25%”.

Penicillin yielded an IC50 in series [1] of 15.25 µg/L. Further, the “S. pneumonia viability (%)” value is recorded as 79.82% in series [2] (25 μg/L penicillin alone), 42.70% in series [2] (50 μg/L Penicillin alone) and 40.93% in series [2] (100 μg/L Penicillin alone). Further, the “reduced viability by” value in series [2] (25 μg/L penicillin alone) is reported as “approximately 21%”. Besides, the S. pneumonia viability in series [2] (Penicillin 100 μg/L, MSM 0%) is reported as 40.93%.
